In patent publication US20040136975A1 (priority 2004, published 2004):

Tests used:
transformed cells = conditions: cited from earlier work
VEGF = conditions: cited from earlier work
[1] = tested on: non-transformed (pDCR) NIH 3T3 cells; test: cells; assay type: cell-based; conditions: Mus musculus, NIH3T3, 48 h, read-out: inhibition of growth
transfected EC cells = conditions: cited from earlier work

Compound	morphological reversion of transformed cells (transformed cells)	up-regulation of VEGF by heregulin (VEGF)	inhibition at 50 µM [1] [%]	basal motility and motility stimulated by JNK agonists (transfected EC cells)
COc1cccc(-c2cc(=O)c3ccccc3o2)c1N [PD98059]	causes morphological reversion	not	50	
COc1cc(/C=C/C(=O)CC(=O)/C=C/c2ccc(O)c(OC)c2)ccc1O [curcumin]				decreased
SB203580		blocks		
trans-retinoic acid				decreased
